Test results taken from paper PMC11614110, “Crystal structure of a short-chain dehydrogenase from Burkholderia cenocepacia J2315 in complex with NADP^+ and benzoic acid” (Acta Crystallographica Section F: Structural Biology …, 2024).

Key:
[1] = biological target: T1, BcSDR (short-chain dehydrogenase reductase from B. cenocepacia J2315) (Burkholderia cenocepacia, UniProt B4EFS5); assay: X-ray crystal structure, […] A; type: binding; conditions: pH 4.2, 290 K
T1 construct: gene BCAM2128; vector pBG1861; expressed in E. coli BL21(DE3) R3 Rosetta; homodimer
T1 sequence (B4EFS5 1-237): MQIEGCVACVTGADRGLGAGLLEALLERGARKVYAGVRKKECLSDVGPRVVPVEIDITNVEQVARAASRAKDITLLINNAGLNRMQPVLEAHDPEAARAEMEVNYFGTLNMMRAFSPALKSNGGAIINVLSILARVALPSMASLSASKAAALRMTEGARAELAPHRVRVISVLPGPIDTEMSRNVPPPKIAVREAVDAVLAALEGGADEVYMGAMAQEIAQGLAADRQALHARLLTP

[2] = biological target: the molecule itself; assay: crystal structure; sitting-drop vapor diffusion, 290 K; 23.45 mg/ml protein, 5 mM NADP+; 40% PEG 300, 100 mM sodium phosphate dibasic/citric acid pH 4.2; space group P212121, two molecules per asymmetric unit; dimer assignment supported by PDBePISA

## O=C(O)c1ccccc1 [benzoic acid]
[1]; not added, co-purified ligand, active site, NADP+ bound
  X-ray crystal structure, 1.40 A: BcSDR co-crystallized with a molecule of benzoic acid bound in the active site

## NC(=O)c1ccc[n+]([C@@H]2O[C@H](COP(=O)(O)OP(=O)(O)OC[C@H]3O[C@@H](n4cnc5c(N)ncnc54)[C@H](OP(=O)(O)O)[C@@H]3O)[C@@H](O)[C@H]2O)c1 [NADP^+]
[1]; 5 mM NADP+ in co-crystallization drop, coenzyme site, both chains
  X-ray crystal structure, 1.40 A: The structure of BcSDR showed clear electron density for NADP^+ in the coenzyme-binding site

B1: short-chain dehydrogenase reductase (SDR) from Burkholderia cenocepacia J2315 (enzyme, Burkholderia cenocepacia (strain J2315))
chain: MQIEGCVACVTGADRGLGAGLLEALLERGARKVYAGVRKKECLSDVGPRVVPVEIDITNVEQVARAASRAKDITLLINNAGLNRMQPVLEAHDPEAARAEMEVNYFGTLNMMRAFSPALKSNGGAIINVLSILARVALPSMASLSASKAAALRMTEGARAELAPHRVRVISVLPGPIDTEMSRNVPPPKIAVREAVDAVLAALEGGADEVYMGAMAQEIAQGLAADRQALHARLLTP
notes: putative short-chain dehydrogenase reductase, Burkholderia cenocepacia J2315, UniProt B4EFS5; full-length gene stated to encode amino acids 1-237; Crystallised with NADP+ and a benzoic acid ligand; a phosphate ion lies at the dimer interface; also called BcSDR; His-BcSDR; source: Escherichia coli BL21(DE3) R3 Rosetta, purified (Ni2+ IMAC, SEC on Superdex 75); not shown: His6, N-terminal, kept
[2]
  binding result: binds
